From publication PMC12409542, “Synthesis and Computational Evaluation of N‑Acetyl-Derived Schiff Bases Incorporating 1,2,4-Triazoles for Dual Inhibition of Prostate Cancer Cells and Carbonic Anhydrases” (ACS Omega, 2025)

What was measured:
PNT1a cells = assay: Cell viability assay (CVDK-8), PNT1a cells; type: cell-based; conditions: Homo sapiens, viability of PNT1a normal prostate epithelial cells, 24 h treatment
Protocol: (§1) In this research, the inhibitory effects of the compounds under investigation on cell viability were assessed using two distinct human cell lines: specifically, the DU145 cell line, representative of prostate cancer, and the PNT1a cell line, which serves as a model for normal human prostate epithelial cells. Cells were routinely cultured in RPMI-1640 medium supplemented with 10% fetal bovine serum, 1% penicillin/streptomycin (Gibco), and 1% L-glutamine. All cells were maintained in a 5% CO2 humidified incubator at 37 °C.
(§2) Effects of all compounds synthesized in this study on the viability of PNT1a and DU145 cells were analyzed using the Cell Viability Detection Kit-8 (CVDK-8, Ecotech Biotechnology, Erzurum, Turkey). In brief, cells were seeded at a concentration of 3 × 10^3 cells per well within 100 μL medium in 96 well plates. Then, cells were treated with compounds at concentrations of […] for 24 h. After treatment with the test compounds, the medium was removed and fresh RPMI-1640 medium containing 1/10 CVDK- 8 reagent was added to each well, and plates were incubated for 3 h at 37 °C protected from light. After the incubation period, optical densities were measured using Epoch spectrophotometer at 450 nm. For cell culture, experiments were performed in triplicate, and data were analyzed by t tests.

DU145 cells = assay: Cell viability assay (CVDK-8), DU145 cells; type: cell-based, human; conditions: for effect on viability of cancer cells (in words): DU145, 1, 10 and 100 μM, 24 h; for IC50: Homo sapiens, DU-145, viability of DU145 cells, 24 h treatment, CVDK-8; for selectivity indices (SI) PNT1a IC50/DU145 IC50: ratio PNT1a IC50/DU145 IC50, 24 h
Protocol: as §1, §2

hCA II = hCA II (Homo sapiens, UniProt P00918); assay: hCA II inhibition, spectrophotometric esterase method (p-nitrophenyl acetate); type: biochemical; conditions: p-nitrophenyl acetate substrate, 348 nm; for Ki: read-out: K i (μM) hCA II
Protocol: (§3) In this study, Sepharose-4B L-Tyrosine sulfanilamide affinity chromatography was employed to purify both CA isozymes in a single phase. A previous process was used to manufacture the column chemical material for affinity chromatography containing Sepharose-4B-L-Tyrosine-Sulfanilamide. As previously shown, the protein molecules’ flow in the column eluates was measured spectrophotometrically at 280 nm. […] The substrate used, p-nitrophenyl acetate, was enzymatically converted by both isoenzymes into p-nitrophenolate ions.

hCA I = hCA I (Homo sapiens, UniProt P00915); assay: hCA I inhibition, spectrophotometric esterase method (p-nitrophenyl acetate); type: biochemical; conditions: p-nitrophenyl acetate substrate, 348 nm; for Ki: read-out: K i (μM) hCA I
Protocol: as §3

hCA I, sequence (P00915 whole entry): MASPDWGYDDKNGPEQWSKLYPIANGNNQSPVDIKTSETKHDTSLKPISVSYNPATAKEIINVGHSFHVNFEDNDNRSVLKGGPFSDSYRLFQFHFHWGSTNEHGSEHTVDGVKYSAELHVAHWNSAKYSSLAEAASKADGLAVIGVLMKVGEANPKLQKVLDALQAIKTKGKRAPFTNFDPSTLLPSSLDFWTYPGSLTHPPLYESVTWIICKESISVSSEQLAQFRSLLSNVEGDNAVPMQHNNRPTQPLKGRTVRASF

Compound	IC50 (DU145 cells)	selectivity indices (SI) PNT1a IC50/DU145 IC50 (DU145 cells)	IC50 (hCA II)	Ki (hCA II)	IC50 (hCA I)	Ki (hCA I)	IC50 (PNT1a cells)	effect on viability of cancer cells (in words) (DU145 cells)
CC(=O)n1nc(C)n(N=Cc2cccc(OS(=O)(=O)c3ccc(C)cc3)c2)c1=O [6a, 3-[((1-Acetyl-3-methyl-5-oxo-1,5-dihydro-4H-1,2,4-triazol-4-yl)-imino)-methyl]-phenyl-4-methylbenzenesulfonate]	73.2 ± 11.5 µM	6.74	15.3 µM	19.7 ± 2.48 µM	11.4 µM	14 ± 1.15 µM	> 100 µM	decreased the viability of cancer cells in a dose-dependent manner
CCc1nn(C(C)=O)c(=O)n1N=Cc1cccc(OS(=O)(=O)c2ccc(C)cc2)c1 [6b, 3-[((1-Acetyl-3-ethyl-5-oxo-1,5-dihydro-4H-1,2,4-triazol-4-yl)-imino)-methyl]-phenyl-4-methylbenzenesulfonate]			18.4 µM	21.9 ± 3.48 µM	13.7 µM	16.7 ± 2.14 µM		
CC(=O)n1nc(Cc2ccccc2)n(N=Cc2cccc(OS(=O)(=O)c3ccc(C)cc3)c2)c1=O [6c, 3-[((1-Acetyl-3-benzyl-5-oxo-1,5-dihydro-4H-1,2,4-triazol-4-yl)-imino)-methyl]-phenyl-4-methylbenzenesulfonate]	> 100 µM	1.22	14.5 µM	17.3 ± 2.41 µM	10.2 µM	13.1 ± 1.02 µM	> 100 µM	did not suppress the viability of cancer cells in low concentrations

Now from value to compound, other results behind:

IC50 (DU145 cells)	selectivity indices (SI) PNT1a IC50/DU145 IC50 (DU145 cells)	IC50 (hCA II)	Ki (hCA II)	IC50 (hCA I)	Ki (hCA I)	Compound	IC50 (PNT1a cells)	effect on viability of cancer cells (in words) (DU145 cells)
49.8 ± 11.1 µM	2.28	10.6 µM	11.7 ± 1.01 µM	7.12 µM	9.26 ± 0.88 µM	CC(=O)n1nc(Cc2ccc(C)cc2)n(N=Cc2cccc(OS(=O)(=O)c3ccc(C)cc3)c2)c1=O [6d, 3-[((1-Acetyl-3-p-methylbenzyl-5-oxo-1,5-dihydro-4H-1,2,4-triazol-4-yl)-imino)-methyl]-phenyl-4-methylbenzenesulfonate]	> 100 µM	did not suppress the viability of cancer cells in low concentrations
> 100 µM	5.23	16.8 µM	18.1 ± 2.47 µM	12.3 µM	14.2 ± 1.1 µM	CC(=O)n1nc(Cc2ccc(Cl)cc2)n(N=Cc2cccc(OS(=O)(=O)c3ccc(C)cc3)c2)c1=O [6e, 3-[((1-Acetyl-3-p-chlorobenzyl-5-oxo-1,5-dihydro-4H-1,2,4-triazol-4-yl)-imino)-methyl]-phenyl-4-methylbenzenesulfonate]	> 100 µM	decreased the viability of cancer cells in a dose-dependent manner
